Assay results taken from patent US20090048449A1, “RIMONABANT MONOHYDRATE, PROCESS FOR THE PREPARATION THEREOF AND PHARMACEUTICAL COMPOSITIONS CONTAINING SAME” (SANOFI-AVENTIS, priority 2006, published 2009).

Experiments:
Format in all cases: physicochemical
[1] = Water vapor sorption/desorption at 25° C. (SGA100 analyzer); conditions: sorption cycle 0-100% RH at 25° C. after degassing the monohydrate at 80° C. for 3 hours (water of hydration lost)
Description: Analysis of water vapor sorption/desorption measurements was carried out on the rimonabant monohydrate crystal form on a SGA100 analyzer sold by VTI (USA). It was operated between 0% and 100% relative humidity at 25° C. after degassing the monohydrate form at 80° C. for 3 hours. The rimonabant monohydrate loses its water of hydration molecule during drying at 80° C. During the water vapor sorption cycle, the conversion of the rimonabant into rimonabant monohydrate occurs starting from 40% relative humidity. The sorption/desorption isotherm is represented in FIG. 4.

[2] = Filterability: specific resistance of the filter cake; conditions: filtering crystals from the solution in which they were formed; comparison with form I and form II
Description: The improvement in filterability allows the filtration step to be shortened and leads to a significant improvement in the texture of the filter cake which is characterized by a low moisture content of the powder before drying and a low degree of residual solvent before drying. The resulting powder after drying has improved physical properties, especially in terms of flowability and therefore of handleability.

[3] = Flowability of the crystal forms by flowability / compressibility / Carr index; conditions: for Carr index: tap and bulk densities in graduated cylinder, data at 10 and 1250 taps, <=20% good powder flow, >21% passable to very difficult
Description: The flowability of the rimonabant monohydrate crystal form was measured and compared to that of the rimonabant crystal form II. The flowability of the crystal forms is measured by the flowability index or compressibility index or Carr index as described in R. L. Carr: Evaluation of flow properties of solids, Chem. Eng., 1965, 163-168 and also in the European Pharmacopeia.
The flowability index is calculated according to the following equation: IC=100×(ρt−ρb)/ρt where ρt is the tap density and ρb is the bulk density. This index is considered to be good if it is less than 20.
The densities are determined experimentally by packing the product into a graduated cylinder according to the procedure described in the European Pharmacopeia. The densities are determined after 10, 500, 1250 and 2500 taps. The Carr index is determined from the data measured at 10 and 1250 taps.
A Carr index less than or equal to 20% is considered as corresponding to a good powder flow, whereas a Carr index greater than 21% is considered as corresponding to a passable, even difficult or very difficult, powder flow.

## Cc1c(C(=O)NN2CCCCC2)nn(-c2ccc(Cl)cc2Cl)c1-c1ccc(Cl)cc1 [rimonabant, N-piperidino-5-(4-chlorophenyl)-1-(2,4-dichlorophenyl)-4-methylpyrazole-3-carboxamide]
[1]
  Relative humidity from which conversion of rimonabant into rimonabant monohydrate occurs: ≥ 40 % relative humidity

## Cc1c(C(=O)NN2CCCCC2)nn(-c2ccc(Cl)cc2Cl)c1-c1ccc(Cl)cc1 [rimonabant monohydrate crystal form]
[2]
  Specific resistance of the filter cake: less than that measured for rimonabant crystal form I and crystal form II
[3]
  Carr index: 20%

## Cc1c(C(=O)NN2CCCCC2)nn(-c2ccc(Cl)cc2Cl)c1-c1ccc(Cl)cc1 [rimonabant crystal form I, N-piperidino-5-(4-chlorophenyl)-1-(2,4-dichlorophenyl)-4-methylpyrazole-3-carboxamide]
[3]; Carr index measured, only class in words printed
  Flowability corresponding to the Carr index (in words): very difficult flowability

## Cc1c(C(=O)NN2CCCCC2)nn(-c2ccc(Cl)cc2Cl)c1-c1ccc(Cl)cc1 [rimonabant crystal form II, N-piperidino-5-(4-chlorophenyl)-1-(2,4-dichlorophenyl)-4-methylpyrazole-3-carboxamide]
[3]
  Carr index: around 38%
